Patent US11597703B2, “Caspase inhibitors and methods of use thereof” (Histogen Inc., priority 2019, dated 2023)

Assays:
Caspase-3 = molecular target: T1, Caspase-3 (Homo sapiens, UniProt P42574); assay: Caspase-3 enzymatic inhibition assay, IC50; type: biochemical; conditions: read-out: Caspase 3 enzyme inhibition IC50
T1 construct: purchased Enzo Biosciences
T1 sequence (P42574 29-175 limits assumed): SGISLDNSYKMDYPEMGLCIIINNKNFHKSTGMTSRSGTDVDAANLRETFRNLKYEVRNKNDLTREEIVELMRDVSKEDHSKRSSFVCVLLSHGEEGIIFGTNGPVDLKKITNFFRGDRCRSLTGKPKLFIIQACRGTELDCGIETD
T1 sequence (P42574 176-277 limits assumed): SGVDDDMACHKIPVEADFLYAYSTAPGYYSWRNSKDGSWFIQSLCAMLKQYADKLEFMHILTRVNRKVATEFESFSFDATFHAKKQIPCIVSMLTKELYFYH
Summary of the method: (§1)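 Commercially sourced human caspases. Activity assays followed the maker's instructions for caspase-3, 6 and 7. Potency given as IC50.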

Caspase 6 = molecular target: T2, Caspase 6 (Homo sapiens, UniProt P55212); assay: Caspase 6 enzymatic inhibition assay, IC50; type: biochemical; conditions: read-out: Caspase 6 enzyme inhibition IC50
T2 construct: purchased Enzo Biosciences
T2 sequence (P55212 24-179 limits assumed): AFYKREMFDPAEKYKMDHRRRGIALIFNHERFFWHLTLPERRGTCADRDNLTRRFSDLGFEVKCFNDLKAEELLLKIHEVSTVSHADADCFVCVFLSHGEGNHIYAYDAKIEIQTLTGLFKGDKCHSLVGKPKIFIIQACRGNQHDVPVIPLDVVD
T2 sequence (P55212 194-293 limits assumed): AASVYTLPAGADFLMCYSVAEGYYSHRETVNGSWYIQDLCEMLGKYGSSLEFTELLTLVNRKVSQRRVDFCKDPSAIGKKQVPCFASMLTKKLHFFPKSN
Summary of the method: as §1

Caspase-1 = molecular target: T3, Caspase-1 (Homo sapiens, UniProt P29466); assay: Caspase-1 enzyme inhibition assay (Ac-YVAD-pNA substrate), IC50; type: biochemical
T3 construct: purchased Enzo Biosciences
T3 sequence (P29466 120-297 limits assumed): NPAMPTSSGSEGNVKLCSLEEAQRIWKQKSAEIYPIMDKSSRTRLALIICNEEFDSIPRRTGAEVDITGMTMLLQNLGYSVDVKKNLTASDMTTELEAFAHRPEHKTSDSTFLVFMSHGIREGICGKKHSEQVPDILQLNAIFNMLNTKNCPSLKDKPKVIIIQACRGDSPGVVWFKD
T3 sequence (P29466 317-404 limits assumed): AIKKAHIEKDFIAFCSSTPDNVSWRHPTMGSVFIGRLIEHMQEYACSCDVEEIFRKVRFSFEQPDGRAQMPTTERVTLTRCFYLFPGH
Summary of the method: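 Buffer was 50 mM HEPES pH 7.4, 100 mM NaCl, 0.1% CHAPS, 1 mM EDTA, 10% glycerol and 10 mM DTT. Caspase-1 was reacted with 200 μM Ac-YVAD-pNA (final). Release of p-nitroaniline was followed continuously at 405 nm, and rates were taken from the linear slope (ε 10,500 M-1 cm-1).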

IL-1β = assay: Mouse in vivo model of peritoneal inflammation (LPS/ATP), IL-1β in peritoneal lavage fluid; parameters: species or system Mice; conditions: mouse peritonitis, IP injection
Procedure: Compounds of the present invention were tested in a mouse in vivo model of peritoneal inflammation (peritonitis). Mice were treated with intraperotonial injection of bacterial endotoxin, (LPS). After 1 hour, test compounds were administered by IP injection. After an additional hour, adenosine triphosphate (ATP) was administered by IP injection to further induce the production of the inflammatory cytokines, IL-1β and IL 18. After 0.5 hours, peritoneal lavage fluid was collected and analyzed for IL-1β and IL 18. An inhibitor of the NLRP 3 inflammasome, MCC950, was administered by IP injection and included as a reference test compound. […] IL18 levels were determined by a commercially available ELISA kit following the manufacture's instructions FIG. 3.

Caspase 7 = molecular target: T4, Caspase 7 (Homo sapiens, UniProt P55210); assay: Caspase 7 enzymatic inhibition assay, IC50; type: biochemical; conditions: read-out: Caspase 7 enzyme inhibition IC50
T4 construct: purchased Enzo Biosciences
T4 sequence (P55210 24-198 limits assumed): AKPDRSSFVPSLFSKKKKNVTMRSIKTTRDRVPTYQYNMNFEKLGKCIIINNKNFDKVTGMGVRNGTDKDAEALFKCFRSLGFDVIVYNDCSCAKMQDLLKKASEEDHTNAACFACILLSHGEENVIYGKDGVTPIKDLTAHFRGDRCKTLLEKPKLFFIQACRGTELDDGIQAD
T4 sequence (P55210 207-303 limits assumed): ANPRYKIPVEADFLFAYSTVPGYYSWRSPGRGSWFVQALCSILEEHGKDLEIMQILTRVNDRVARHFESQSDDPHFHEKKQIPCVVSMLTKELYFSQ
Summary of the method: as §1

IC50 (Caspase-3): ≥ 1000 nM
IC50 (Caspase 6): ≥ 1000 nM
IC50 (Caspase-1): ≤ 10 nM
IC50 (Caspase 7): ≥ 1000 nM
SMILES: C[C@H](NC(=O)C(=O)Nc1c(F)cccc1F)C(=O)N[C@@H](CCC(=O)O)C(=O)COc1c(F)c(F)cc(F)c1F [Example 6, (S)-4-((S)-2-(2-((2,6-Difluorophenyl)amino)-2-oxoacetamido)propanamido)-5-oxo-6-(2,3,5,6-tetrafluorophenoxy)hexanoic acid]
inhibition of the in vivo production of IL-1β (IL-1β): statistically significant inhibition
